Test results: patent US6172262A, “Amphiphilic agents for membrane protein solubilization” (priority 1999, dated 2001)
In brackets after ≈: the same amount, converted by molar mass. Like-named read-outs stand apart in the source and are kept apart here.

Columns and labels:
[1] = CMC by dye uptake (orange OT); format: physicochemical
Source text: Triphenylacetic acid 4.0 has a novel amphiphilic geometry and is commercially available.
The addition of the t-butyl group accomplished the goal of increasing the hydrophobic surface area, as indicated by the diminished CMC's.
The CMC of a detergent can be determined experimentally by measuring the solubilization of a water-insoluble dye or fluorophore while varying the concentration of detergent. CMC may also be determined by measuring the diminution of the surface tension of an aqueous solution as a function of detergent concentration. (CMC's determined by either method correlate with each other.) The CMC is determined by extrapolating the plot of solubilization vs. concentration (or surface tension vs. concentration) in the two linear regions above and below the CMC. Where the two lines intersect is the CMC. In this Example, CMC's were determined by the method of Nugebauer, J. M. (1990), Methods in Enzymology, 182:239-253: […]

Aqueous solubility = format: physicochemical; conditions: water
[2] = CMC values of conventional detergents quoted for comparison; format: physicochemical
[3] = comparison detergent, source not given; cited from earlier work
Bacteriorhodopsin (BR) [4] = molecular target: T1, Bacteriorhodopsin (BR) (Halobacterium salinarum, UniProt P02945); conditions: reported detergents; cited from earlier work
T1 construct: We used BR solubilization from the PM to evaluate tripod detergents; endogenous in cells
T1 sequence (P02945 14-261 limits assumed): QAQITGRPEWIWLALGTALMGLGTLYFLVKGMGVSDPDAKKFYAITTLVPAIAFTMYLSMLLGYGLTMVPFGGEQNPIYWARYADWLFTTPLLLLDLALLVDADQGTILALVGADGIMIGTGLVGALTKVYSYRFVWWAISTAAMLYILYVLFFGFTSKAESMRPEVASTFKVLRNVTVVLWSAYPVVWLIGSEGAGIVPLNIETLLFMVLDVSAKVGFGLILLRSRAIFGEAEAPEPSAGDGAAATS

Bacteriorhodopsin (BR) [5] = molecular target: T1, Bacteriorhodopsin (BR); test: Solubilization of bacteriorhodopsin (BR) from purple membrane (PM)
Protocol: We used BR solubilization from the PM to evaluate tripod detergents synthesized using the modular synthetic approach described above. The retinal chromophore of BR allowed us to quantify solubilized material by UV. Solubilized BR is defined as the intact protein left in the supernatant after a sample is centrifuged for 30 minutes at 300,000 g. The percent BR solubilized is determined by dividing the absorbance of the supernatant by the absorbance of the solution before centrifugation.
Solubilization experiments were conducted by making a series of solutions with constant concentration of PM and varying the concentration of detergent. […] The absorbance at the λmax (between 540 nm and 570 nm) was then measured, and immediately afterward the samples were centrifuged for 30 minutes at 300,000 g. The supernatant was carefully removed so as not to disturb pelleted material. Absorbance measurements were made again, and the ratio of the supernatant absorbance to the absorbance before centrifugation provided the percent solubilization.

What does the source list for `C[N+](C)([O-])CCN(CC[N+](C)(C)[O-])C(=O)CC(c1ccccc1)(c1ccccc1)c1ccccc1` [Detergent 4.10]?
CMC ([1]; dye uptake): about 80 mM; solubility in water (in words) (Aqueous solubility): very soluble in water; solubility (Aqueous solubility; read-out: solubility in water): > 2000 mM

What does the source list for `Br.CCCCCCCCCCCCN` [dodecylammonium bromide]?
CMC ratio, dodecylammonium bromide vs N-oxide analog (LDAO) [2]: > 7 times larger; CMC [3]: 15 mM

Which results are given for `O=C(O)C(c1ccccc1)(c1ccccc1)c1ccccc1` [Detergent 4.1]?
CMC ([1]; orange OT uptake): 130 mM; solubility (Aqueous solubility; read-out: solubility): 210 mM (≈ 60.6 mg/mL)

With `CCCCCCCCO[C@@H]1O[C@H](CO)[C@@H](O)[C@H](O)[C@H]1O` [OG] as the molecule, how does the “removal of BR from the purple membrane (in words)” value (“removal of BR” below) (Bacteriorhodopsin (BR) [4]) read?
Its value is “successfully remove BR from its native environment”.

Which CMC ([1]; dye uptake) does the source give for `CC(C)(C)c1ccc(C(CC(=O)N(CC[N+](C)(C)[O-])CC[N+](C)(C)[O-])(c2ccccc2)c2ccccc2)cc1` [Detergent 4.20] here?
The CMC was “about 12.5 mM”.

With `CCCCCCCCCCCC[N+](C)(C)[O-]` [DDAO, dodecylammonium-N-oxide] as the molecule, how does the CMC [3] read?
The CMC was 10.4 mM.

With Triton X-100 [reference compound] as the molecule, how does the “BR solubilization (in words)” value (Bacteriorhodopsin (BR) [5]) read?
The value was “effective at solubilizing BR”.

What about the “time to solubilize BR” value (Bacteriorhodopsin (BR) [5]; pH 5) of the same molecule?
The value was 49 h.

And the “time to solubilize BR” value (Bacteriorhodopsin (BR) [5]; pH 6.9)?
Its value is 24 h.

What about the “removal of BR” value (Bacteriorhodopsin (BR) [4]) of the same molecule?
Its value is “successfully remove BR from its native environment”.

With `CCCCCCCCCO[C@@H]1O[C@H](CO)[C@@H](O)[C@H](O)[C@H]1O` [nonyl glucoside (NG), nonyl glucoside] as the molecule, how does the “removal of BR” value (Bacteriorhodopsin (BR) [4]) read?
Its value is “successfully remove BR from its native environment”.
